Series [1] can be described thus: compatibility (overall condition, vital parameters, laboratory analysis of serum and urine) in patients (Example 19). Format: in vivo, human. As to the method:
Fifteen human patients with known liver metastases were examined in the liver-CT 10 minutes, 60 minutes and (N=5) 120 minutes after intravenous infusion of 0.2, 0.35 or 0.5 mmol/kg of Gd-EOB-DTPA (see Example 16).
Gd-EOB-DTPA ([…]) was administered intravenously in an intravenous drip in the arm vein. The infusion time was 20 minutes for the dosages of 0.2 and 0.35 mmol/kg and 30 minutes for the maximum dose of 0.5 mmol/kg.
The compatibility of Gd-EOB-DTPA was determined by determining the overall condition, the recording of vital parameters and a laboratory analysis of serum and urine parameters.

The subject of series [2] is healthy liver parenchyma. The series can be described thus: density enhancement of the healthy liver parenchyma in CT after infusion, patients with liver metastases (Example 16). The conditions noted are these: 0.35 mmol/kg, 0.25 molar solution, individual patients 1-5 (one line per patient), disodium salt. Format: in vivo, human. As to the method: Density enhancement of the healthy liver parenchyma 10 and 60 minutes after infusion of a 0.25 molar solution of the gadolinium(III) complex of the 3,6,9-triaza-3,6,9-tris(carboxymethyl)-4-(4-ethoxybenzyl)-undecanedioic acid disodium salt (Gd-EOB-DTPA, described in Example 8c of EP 0405704) in the case of 5 human patients with liver metastases in a dose of 0.35 mmol/kg in Houndsfield units (HU). This dose corresponds to about 16 g of the complex per 70 kg of patient.

Series [3] deals with liver metastases. Briefly: liver CT of human patients with known liver metastases (Example 19). Format: in vivo. As to the method:
Gd-EOB-DTPA ([…]) was administered intravenously in an intravenous drip in the arm vein. The infusion time was 20 minutes for the dosages of 0.2 and 0.35 mmol/kg and 30 minutes for the maximum dose of 0.5 mmol/kg. […] Exclusion criteria for the patients were: […] The entire liver was measured within 20-30 seconds of a pause in breathing. The table feed rate was 8 mm/sec, the collimation 8 mm. Using a basis of pre-contrast and post-contrast images, two independent observers evaluated the number and size of the metastases qualitatively (excellent, good, moderate, minimal, no improvement) and quantitatively (measurement of the Houndsfield units).

A short description of series [4]: density values of samples measured in a water phantom in a computer tomograph (137 kV, 100 mA). Format: physicochemical. As to the method:
3,6,9-Triaza-3,6,9-tris-(carboxymethyl)-4-(4-ethoxybenzyl)-undecanedioic acid
Disodium salt was complexed with different X-ray-absorbing metal ions and then in the case of differing concentration, the density values of the samples were measured in a water phantom since it approximately corresponded in dimensions to those of a human abdomen.

Series [5] has as its system liver. The conditions noted are these: human, dose corresponding to 360 mg of iodine/kg; cited from earlier work.
The test system of series [6] is liver. The conditions noted are these: mouse; cited from earlier work.
In series [7] the test system is liver. Particulars: dog; cited from earlier work.
The test system of series [8] is liver. Particulars: monkey; cited from earlier work.
The test system of series [9] is mice. Briefly: acute toxicity (LD50) after one-time intravenous administration to mice. Particulars: mice (NMRI), 2 ml/minutes, deaths up to 7 days. In kind it is in vivo, mouse (NMRI (SPF)). As for the experimental part: Study of acute toxicity (LD50) after one-time intravenous administration to mice
The contrast medium to be tested was administered to the mice in individual restraining cages (strain: NMRI (SPF); cultivator: Schering; average weight: 20 g; same sex distribution) into one of the caudal veins at a rate of 2 ml/minutes and at different dosage levels. The number of animals that died up to a fixed time was determined (3 hours, 24 hours, 3 days and 7 days).

In series [10] the test system is liver. The conditions noted are these: human, maximum compatible dose corresponding to about 7 g of iodine/70 kg; cited from earlier work.
The conditions of series [11]: humans; cited from earlier work.
The subject of series [12] is liver. The conditions noted are these: cited from earlier work; for concentration in the liver (fold), at 50 μg of iodine/ml: 50 μg of iodine/ml of plasma; for concentration in the liver versus plasma, at 500 μg of iodine/ml: 500 μg of iodine/ml of plasma.
Setting [13] is: 0.2, 0.35 or 0.5 mmol/kg i.v. infusion.

Values joined by “and” are separate entries in the source; they are usually repeats but may differ in a detail not shown here. Identical values can stand only once. Like-named read-outs stand apart in the source and are kept apart here.

As to `CCOc1ccc(CC(CN(CCN(CC(=O)[O-])CC(=O)[O-])CC(=O)[O-])N(CC(=O)[O-])CC(=O)[O-])cc1.[Gd+3].[Na+].[Na+]` (stereo not drawn) [Gd-EOB-DTPA, gadolinium(III) complex of the 3,6,9-triaza-3,6,9-tris(carboxymethyl)-4-(4-ethoxybenzyl)-undecanedioic acid disodium salt], the other side effects entry in [1] (0.2, 0.35 or 0.5 mmol/kg) was “nausea and a sensation of pressure in the epigastric region”. For the same compound, in series [1] (0.2, 0.35 or 0.5 mmol/kg i.v. infusion, 15 patients), the general compatibility entry is reported as “good”. In addition, the “mild or moderate side effects observed (number)” value in series [1] (0.2, 0.35 or 0.5 mmol/kg, 15 patients) was “four”. For the same compound, in series [1] (persisted for a few seconds or minutes), the “burning sensation at the infusion site or retrograde therefrom (cases)” value was “two”. Also, the “slight increases of aspartate transferase and alaninamino transferase (patients)” value in [1] (probably caused by the liver metastases) is reported as “three”. Besides, the “evaluation of the laboratory parameters” value in series [1] (serum and urine parameters) is “no precise trend”. Moreover, the “Density enhancement of the healthy liver parenchyma, 10 minutes p. inf.” value in [2] (10 minutes after infusion) is 19 HU and 12 HU and 10 HU and 18 HU and 15 HU. Moreover, the “Density enhancement of the healthy liver parenchyma, 60 minutes p. inf.” value in [2] (60 minutes after infusion) was 26 HU and 25 HU and 17 HU and 32 HU. In addition, the “visualization of the metastases, all dose groups” value in series [3] (0.2, 0.35 and 0.5 mmol/kg) is reported as “improved”. Besides, in [3] (setting [13]), the “CT density of the healthy liver” value was “dose-dependent increase” and the “CT density of the metastases” value was “unchanged”. In series [3] (0.35 and 0.5 mmol/kg), the “visualization of the metastases, two upper dose groups” value is listed as “excellent”. Besides, the “visualization of the gallbladder and the bile ducts” value in series [3] (after i.v. infusion) is “possible”. The “additional metastases discovered, on the average” value in [3] (maximum dose (0.5 mmol/kg)) is on record as “two”. Besides, in [3] (maximum dose, decreased from 20.3 mm), the “average size of the smallest metastases found” value stood at 16.6 mm. Further, in series [3] (one patient, left lobe of the liver, previously not found), the “diameter of additional lesion detected” value came out at 7 mm. Besides, the “summary as liver or gallbladder contrast medium for CT” value in [3] (summary statement) is “well-tolerated and effective”. Moreover, in [4], the “density (HU ± SD), 50 mmol/L” value was 218 HU and the “density (HU ± SD), 500 mmol/L” value was 1680 HU.
Regarding `CCOc1ccc(CC(CN(CCN(CC(=O)[O-])CC(=O)[O-])CC(=O)[O-])N(CC(=O)[O-])CC(=O)[O-])cc1.[Er+3].[Na+].[Na+]` (stereo not drawn) [Er], in series [4], the “density (HU ± SD), 50 mmol/L” value was determined as 254 HU and the “density (HU ± SD), 500 mmol/L” value worked out at 1955 HU.
`CCOc1ccc(CC(CN(CCN(CC(=O)[O-])CC(=O)[O-])CC(=O)[O-])N(CC(=O)[O-])CC(=O)[O-])cc1.[Ho+3].[Na+].[Na+]` (stereo not drawn) [Ho]: in series [4], the “density (HU ± SD), 50 mmol/L” value came out at 221 HU and the “density (HU ± SD), 500 mmol/L” value was determined as 1890 HU.
As for `CNC(=O)c1c(I)c(NC(=O)COCC(=O)N(C)c2c(I)cc(I)c(C(=O)O)c2I)c(I)c(C(=O)O)c1I` [SH L 433], the “enhancement of the liver” value in series [5] was less than 10 HU; in [6] it was greater than 40 HU; in [7], greater than 40 HU; in [8], greater than 40 HU.
For `CCOc1ccc(CC(CN(CC(=O)[O-])CC(Cc2ccc(OCC)cc2)N(CC(=O)[O-])CC(=O)[O-])N(CC(=O)[O-])CC(=O)[O-])cc1.[Na+].[Na+].[Yb+3]` (stereo not drawn) [Example 4e, Ytterbium complex of the disodium salt of 3,6,9-triaza-3,6,9-tris-(carboxymethyl)-4,8-bis-(4-ethoxybenzyl)-undecanedioic acid], the LD50 result in [9] is given as “approximately 15 mmol/kg of body weight”.
Regarding `O=C(COCCOCCOCC(=O)Nc1c(I)cc(I)c(C(=O)O)c1I)Nc1c(I)cc(I)c(C(=O)O)c1I` [iotroxinate], in [10], the “enhancement in the liver” value is 15 HU. Besides, the “excreted via the bile ducts” value in series [11] is “about 90%”. Also, in [12], the “concentration in the liver (fold), at 5 μg of iodine per ml of plasma” value is reported as 5 -fold; the “concentration in the liver (fold), at 50 μg of iodine/ml” value is listed as ~2 -fold; the “concentration in the liver versus plasma, at 500 μg of iodine/ml” value is “considerably lower than in the plasma”.
For the compound `CCOc1ccc(CC(CN(CCN(CC(=O)[O-])CC(=O)[O-])CC(=O)[O-])N(CC(=O)[O-])CC(=O)[O-])cc1.[Na+].[Na+].[Yb+3]` (stereo not drawn) [Yb, Ytterbium complex of the disodium salt of 3,6,9-triaza-3,6,9-tris-(carboxymethyl)-4-(4-ethoxybenzyl)-undecanedioic acid], in series [4], the “density (HU ± SD), 50 mmol/L” value is 252 HU and the “density (HU ± SD), 500 mmol/L” value amounted to 1980 HU.
As for `CCOc1ccc(CC(CN(CCN(CC(=O)[O-])CC(=O)[O-])CC(=O)[O-])N(CC(=O)[O-])CC(=O)[O-])cc1.[Dy+3].[Na+].[Na+]` (stereo not drawn) [Dy], in [4], the “density (HU ± SD), 50 mmol/L” value came to 226 HU and the “density (HU ± SD), 500 mmol/L” value is given as 1840 HU.
With `CCOc1ccc(CC(CN(CCN(CC(=O)[O-])CC(=O)[O-])CC(=O)[O-])N(CC(=O)[O-])CC(=O)[O-])cc1.[Na+].[Na+].[Tb+3]` (stereo not drawn) [Tb], in series [4], the “density (HU ± SD), 50 mmol/L” value is reported as 228 HU and the “density (HU ± SD), 500 mmol/L” value is given as 1760 HU.
With `O=C(COCC(=O)Nc1c(I)cc(I)c(C(=O)O)c1I)Nc1c(I)cc(I)c(C(=O)O)c1I` [ioglycamate], in series [12], the “concentration in the liver (fold), at 5 μg of iodine per ml of plasma” value was 5 -fold; the “concentration in the liver (fold), at 50 μg of iodine/ml” value was ~2 -fold; the “concentration in the liver versus plasma, at 500 μg of iodine/ml” value was “considerably lower than in the plasma”.

The record behind these values is US5853699A, “Use of tetra azacycle complexes as x-ray diagnostic agents for the liver and gallbladder” (priority 1995, dated 1998).
